Measurements taken from patent publication US20240166652A1, “MODULATORS OF THE INTEGRATED STRESS PATHWAY” (Calico Life Sciences LLC, priority 2017, published 2024).
pEC50: −log10 of the molar value.

System: ATF4 luciferase reporter in HEK293T cells
Test: ATF4-Luc assay (ATF4 luciferase reporter, tunicamycin-treated HEK293T cells)
Assay type: cell-based, human
Conditions: Homo sapiens, HEK-293T; HEK293T cells carrying the ATF4 luciferase reporter, 1 μg/mL tunicamycin, 7 hours

Compound	pEC50
O=C(COc1ccc(C(F)F)cc1)NC12CCC(NC(=O)COc3ccc(Cl)c(F)c3)(CC1)[C@@H](O)C2 [Compound 539, 2-(4-chloro-3-fluorophenoxy)-N-[(2S)-4-{2-[4-(difluoromethyl)phenoxy]acetamido}-2-hydroxybicyclo[2.2.2]octan-1-yl]acetamide]	> 8.00
CN(C)c1cccc(COCC(=O)NC23CC(NC(=O)COc4ccc(Cl)c(F)c4)(C2)C3)c1 [Compound 141]	5.70 to 6.30
O=C(COc1ccc(Cl)c(F)c1)N[C@]12CC[C@](NC(=O)COc3ccc(Cl)c(F)c3)(C1)[C@H](O)C2 (racemic) [Compound 579, rac-N,N′-[(1S,2R,4R)-2-hydroxybicyclo[2.2.1]heptane-1,4-diyl]bis[2-(4-chloro-3-fluorophenoxy)acetamide]]	7.30 to 8.00
Cc1n[nH]c2cc(OCC(=O)NC34CCC(NC(=O)COc5ccc(OC(F)(F)F)c(F)c5)(CC3)C[C@@H]4O)ccc12 [Compound 747, 2-[3-fluoro-4-(trifluoromethoxy)phenoxy]-N-[(3S)-3-hydroxy-4-{2-[(3-methyl-1H-indazol-6-yl)oxy]acetamido}bicyclo[2.2.2]octan-1-yl]acetamide]	7.30 to 8.00
CC(O)(c1ccc(OCC(=O)NC23CC(NC(=O)COc4ccc(Cl)c(F)c4)(C2)C3)cc1)C(F)(F)F (centres unmarked) [Compound 413, 2-(4-chloro-3-fluorophenoxy)-N-(3-{2-[4-(1,1,1-trifluoro-2-hydroxypropan-2-yl)phenoxy]acetamido}bicyclo[1.1.1]pentan-1-yl)acetamide]	6.30 to 6.60
CCc1ccc(OCC(=O)NC23CCC(NC(=O)COc4ccc(Cl)c(F)c4)(CC2)[C@@H](O)C3)cc1 [Compound 782, 2-(4-chloro-3-fluorophenoxy)-N-{(2S)-4-[2-(4-ethylphenoxy)acetamido]-2-hydroxybicyclo[2.2.2]octan-1-yl}acetamide]	> 8.00
COc1cc(OCC(=O)NC23CCC(NC(=O)COc4ccc(Cl)c(F)c4)(CC2)C[C@@H]3O)ccc1F [Compound 771, 2-(4-chloro-3-fluorophenoxy)-N-{(3S)-4-[2-(4-fluoro-3-methoxyphenoxy)acetamido]-3-hydroxybicyclo[2.2.2]octan-1-yl}acetamide]	> 8.00
O=C(COc1ccc(Cl)c(F)c1)NC12C=C(C(=O)O)C(NC(=O)COc3ccc(Cl)c(F)c3)(CC1)CC2 [Compound 717, 1,4-bis[2-(4-chloro-3-fluorophenoxy)acetamido]bicyclo[2.2.2]oct-2-ene-2-carboxylic Acid]	6.60 to 7.30
O=C(COc1ccc(Cl)c(F)c1)NC12CCC(NC(=O)COc3ccc(F)cc3)(CC1)C(O)C2 (centres unmarked) [Compound 345, 2-(4-chloro-3-fluorophenoxy)-N-{4-[2-(4-fluorophenoxy)acetamido]-3-hydroxybicyclo[2.2.2]octan-1-yl}acetamide]	> 8.00
COCc1cccc(OCC(=O)NC23CCC(NC(=O)COc4ccc(Cl)c(F)c4)(CC2)[C@@H](O)C3)c1 [Compound 777, 2-(4-chloro-3-fluorophenoxy)-N-[(2S)-2-hydroxy-4-{2-[3-(methoxymethyl)phenoxy]acetamido}bicyclo[2.2.2]octan-1-yl]acetamide]	7.30 to 8.00
CN(C(=O)COc1ccc(Cl)c(Cl)c1)C12CC(NC(=O)COc3ccc(Cl)cc3)(C1)C2 [Compound 199, N-{3-[2-(4-chlorophenoxy)acetamido]bicyclo[1.1.1]pentan-1-yl}-2-(3,4-dichlorophenoxy)-N-methylacetamide]	6.60 to 7.30
Cc1cc(OCC(=O)NC23CCC(NC(=O)COc4ccc(Cl)c(F)c4)(CC2)C[C@@H]3O)c2ccccc2n1 [Compound 520, 2-(4-chloro-3-fluorophenoxy)-N-[(3S)-3-hydroxy-4-{2-[(2-methylquinolin-4-yl)oxy]acetamido}bicyclo[2.2.2]octan-1-yl]acetamide]	7.30 to 8.00
CS(=O)(=O)c1ccc(OCC(=O)NC23CCC(NC(=O)COc4ccc(F)cc4)(CC2)[C@@H](O)C3)cc1F [Compound 767, 2-[3-fluoro-4-(methanesulfonyl)phenoxy]-N-{(3S)-4-[2-(4-fluorophenoxy)acetamido]-3-hydroxybicyclo[2.2.2]octan-1-yl}acetamide]	6.30 to 6.60
CN(C)c1cccc(CCOCC(=O)NC23CC(NC(=O)COc4ccc(Cl)c(Cl)c4)(C2)C3)c1 [Compound 170, 2-(3,4-dichlorophenoxy)-N-[3-(2-{2-[3-(dimethylamino)phenyl]ethoxy}-acetamido)bicyclo[1.1.1]pentan-1-yl]acetamide]	< 5.70
O=C(COc1ccc(Cl)c(F)c1)NC12CCC(NC(=O)COc3ccc(Cl)c(F)c3)(CC1)C(F)C2 (centres unmarked) [Compound 365, N,N′-(2-fluorobicyclo[2.2.2]octane-1,4-diyl)bis[2-(4-chloro-3-fluorophenoxy)acetamide]]	> 8.00
O=C(COc1ccc(Cl)c(F)c1)N[C@@H]1CC[C@]2(NC(=O)COc3ccc(Cl)c(F)c3)CC[C@H]1C2 (racemic) [Compound 653, rac-N,N′-[(1S,4S,5R)-bicyclo[3.2.1]octane-1,4-diyl]bis[2-(4-chloro-3-fluorophenoxy)acetamide]]	> 8.00

Compound	pEC50
O=C(COc1ccc(Cl)c(F)c1)NC12CC(N(CCO)C(=O)COc3ccc(C(F)(F)F)nc3)(C1)C2 [Compound 191, N-{3-[2-(4-chloro-3-fluorophenoxy)acetamido]bicyclo[1.1.1]pentan-1-yl}-N-(2-hydroxyethyl)-2-{[6-(trifluoromethyl)pyridin-3-yl]oxy}acetamide]	5.70 to 6.30
O=C(COc1ccc(Cl)c(F)c1)NC12CCC(NC(=O)Cc3ccc4c(c3)OCO4)(CC1)C(O)C2 (centres unmarked) [Compound 323, 2-(2H-1,3-benzodioxol-5-yl)-N-{4-[2-(4-chloro-3-fluorophenoxy)acetamido]-2-hydroxybicyclo[2.2.2]octan-1-yl}acetamide]	< 5.70
Cc1ncnc(C)c1OCC(=O)NC12CCC(NC(=O)COc3ccc(Cl)c(F)c3)(CC1)C[C@@H]2O [Compound 493, 2-(4-chloro-3-fluorophenoxy)-N-[(3S)-4-{2-[(4,6-dimethylpyrimidin-5-yl)oxy]acetamido}-3-hydroxybicyclo[2.2.2]octan-1-yl]acetamide]	< 5.70
COc1ccc(CNC23CCC(NC(=O)COc4ccc(Cl)c(F)c4)(CC2)C(O)C3)cc1 (centres unmarked) [Compound 314, 2-(4-chloro-3-fluorophenoxy)-N-(2-hydroxy-4-{[(4-methoxyphenyl)methyl]amino}bicyclo[2.2.2]octan-1-yl)acetamide]	< 5.70
O=C(COc1ccc(Cl)c(F)c1)NC12CC(NC(=O)COc3ccnn(CC(F)(F)F)c3=O)(C1)C2 [Compound 309, 2-(4-chloro-3-fluorophenoxy)-N-[3-(2-{[3-oxo-2-(2,2,2-trifluoroethyl)-2,3-dihydropyridazin-4-yl]oxy}acetamido)bicyclo[1.1.1]pentan-1-yl]acetamide]	6.60 to 7.30
O=C(COc1ccc(Cl)c(F)c1)NC12CCC(NC(=O)COc3cccc(F)c3)(CC1)[C@@H](O)C2 [Compound 659, 2-(4-chloro-3-fluorophenoxy)-N-{(3S)-4-[2-(3-fluorophenoxy)acetamido]-3-hydroxybicyclo[2.2.2]octan-1-yl}acetamide]	> 8.00
CC(C)c1cc(OCC(=O)NC23CCC(NC(=O)COc4ccc(Cl)c(F)c4)(CC2)[C@@H](O)C3)cc(C(C)C)c1 [Compound 478, 2-(4-chloro-3-fluorophenoxy)-N-[(2S)-4-{2-[3,5-di(propan-2-yl)phenoxy]acetamido}-2-hydroxybicyclo[2.2.2]octan-1-yl]acetamide]	< 5.70
O=C(COc1ccc(Cl)cc1)NC12CCC(NC(=O)COc3ccc(Cl)cc3)(C1)C2 [Compound 176, N,N′-(bicyclo[2.1.1]hexane-1,4-diyl)bis[2-(4-chlorophenoxy)acetamide]]	7.30 to 8.00
Cc1cc(OCC(=O)NC23CC(NC(=O)COc4ccc(Cl)cc4)(C2)C3)ccc1Cl [Compound 116, 2-(4-chloro-3-methylphenoxy)-N-{3-[2-(4-chlorophenoxy)acetamido]bicyclo-[1.1.1]pentan-1-yl}acetamide]	> 8.00
O=C(COc1ccc(OC(F)(F)F)c(F)c1)NC12CCC(NC(=O)COc3ccc(F)cc3)(CC1)[C@@H](O)C2 [Compound 762, 2-(4-fluorophenoxy)-N-[(2S)-4-{2-[3-fluoro-4-(trifluoromethoxy)phenoxy]acetamido}-2-hydroxybicyclo[2.2.2]octan-1-yl]acetamide]	> 8.00
Cc1cccc(COCC(=O)NC23CC(NC(=O)COc4ccc(Cl)c(Cl)c4)(C2)C3)c1 [Compound 162, 2-(3,4-dichlorophenoxy)-N-(3-{2-[(3-methylphenyl)methoxy]-acetamido}bicyclo[1.1.1]pentan-1-yl)acetamide]	7.30 to 8.00
O=C(COc1ccc(Cl)cc1)NC12CC(NC(=O)COc3cccc(C(F)(F)F)n3)(C1)C2 [Compound 836, 2-(4-chlorophenoxy)-N-[3-(2-{[6-(trifluoromethyl)pyridin-2-yl]oxy}acetamido)bicyclo[1.1.1]pentan-1-yl]acetamide]	6.30 to 6.60
O=C(COc1ccc(Cl)c(O)c1)NC12CCC(NC(=O)COc3ccc(Cl)c(F)c3)(CC1)[C@@H](O)C2 [Compound 574, 2-(4-chloro-3-fluorophenoxy)-N-{(2S)-4-[2-(4-chloro-3-hydroxyphenoxy)acetamido]-2-hydroxybicyclo[2.2.2]octan-1-yl}acetamide]	> 8.00
CN(CCCOc1ccc(Cl)cc1)C12CCC(NC(=O)COc3ccc(Cl)c(F)c3)(CC1)[C@@H](O)C2 [Compound 696, 2-(4-chloro-3-fluorophenoxy)-N-[(2S)-4-{[3-(4-chlorophenoxy)propyl](methyl)amino}-2-hydroxybicyclo[2.2.2]octan-1-yl]acetamide]	7.30 to 8.00
COc1cc(OCC(=O)NC23CC(NC(=O)COc4ccc(Cl)c(F)c4)(C2)C3)ccc1Cl [Compound 126, 2-(4-chloro-3-fluorophenoxy)-N-{3-[2-(4-chloro-3-methoxyphenoxy)acetamido]-bicyclo[1.1.1]pentan-1-yl}acetamide]	> 8.00
O=C(COc1ccc(F)c(C(F)(F)F)c1)NC12CCC(NC(=O)COc3ccc(Cl)c(F)c3)(CC1)[C@@H](O)C2 [Compound 848, 2-(4-chloro-3-fluorophenoxy)-N-[(2S)-4-{2-[4-fluoro-3-(trifluoromethyl)phenoxy]acetamido}-2-hydroxybicyclo[2.2.2]octan-1-yl]acetamide]	> 8.00
